Data on two compounds can be found in ChEMBL document CHEMBL1133955, “Design and synthesis of new inhibitors of HIV-1 protease dimerization with conformationally constrained templates” (Bioorg Med Chem Lett, 2001).

The target in test [1] is Human immunodeficiency virus type 1 protease (Human immunodeficiency virus 1, UniProt Q72874). Kind of test: Inhibitory activity against HIV-1 protease.
For test [2], the target named is Human immunodeficiency virus type 1 protease (Human immunodeficiency virus 1) (UniProt Q72874). Briefly: Compound was tested for inhibition of HIV-1 protease (taken from ZhangPoorman plot).
Test [3] has the same target. Briefly: Compound was tested for inhibition of HIV-1 protease by a dissociative mechanism.

As usually defined, the IC50 is the concentration that gives 50% inhibition. A lower IC50 goes with greater potency. In the case of `COc1ccc(NC(=O)C(=O)O)cc1C(=O)NNC(=O)OCC1c2ccccc2-c2ccccc21`, the concentration for half-maximal inhibition (IC50) in test [1] came to 30 µM. Besides, the Kid in test [2] amounted to 9.1 µM.
Turning to `CC[C@@H](C)[C@H](NC(=O)[C@@H](NC(=O)[C@H](CC(C)C)NC(=O)[C@@H](N)Cc1c[nH]c2ccccc12)[C@H](C)O)C(=O)NCCc1cccc2c1oc1c(CCC(=O)N[C@H](C(=O)N[C@@H](Cc3ccc(O)cc3)C(=O)N[C@@H](CC(N)=O)C(=O)N[C@@H](Cc3ccccc3)C(=O)O)[C@H](C)O)cccc12`, it took 12 µM to reach half-maximal inhibition in test [1] (IC50). In test [3], this compound had a Kid of 5.4 µM.
